Measurements from publication PMC6001238, “Iterative Chemical Engineering of Vancomycin Leads to Novel Vancomycin Analogs With a High in Vitro Therapeutic Index” (Frontiers in Microbiology, 2018).
Values after ≈ are worked out from the molar mass of the structure shown.

Tests used:
[1] = test system: E. faecalis VRE 29; experiment: MIC, broth microdilution, vancomycin-resistant E. faecalis VRE 29 (VanA); type: cell-based, Enterococcus faecalis; details: for MIC: Enterococcus faecalis VRE 29 (vancomycin-resistant), read-out: MIC; for MIC-fold improvement vs. vancomycin: VRE 29, ratio of MIC of vancomycin and MIC of analogue
How it was run: (§1)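 Broth microdilution per CLSI; controls = ultrapure water, non-inoculated broth. One set: + vancomycin 10 μM final alongside test analogue/control drug.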

[2] = test system: S. aureus VISA/HIP5827; experiment: MIC, broth microdilution, vancomycin-intermediate S. aureus VISA HIP5827; type: cell-based, Staphylococcus aureus; details: for MIC: Staphylococcus aureus VISA/HIP5827, read-out: MIC; for MIC-fold improvement vs. vancomycin: VISA/HIP5827, ratio of MIC of vancomycin and MIC of analogue
How it was run: as §1

[3] = test system: E. faecalis VRE 53; experiment: MIC, broth microdilution, vancomycin-resistant E. faecalis VRE 53 (VanA); type: cell-based, Enterococcus faecalis; details: for MIC: Enterococcus faecalis VRE 53 (vancomycin-resistant), read-out: MIC; for MIC-fold improvement vs. vancomycin: VRE 53, ratio of MIC of vancomycin and MIC of analogue
How it was run: as §1

[4] = test system: E. faecalis VRE 37; experiment: MIC, broth microdilution, vancomycin-resistant E. faecalis VRE 37 (VanA); type: cell-based, Enterococcus faecalis; details: for MIC: Enterococcus faecalis VRE 37 (vancomycin-resistant), read-out: MIC; for MIC-fold improvement vs. vancomycin: VRE 37, ratio of MIC of vancomycin and MIC of analogue
How it was run: as §1

[5] = test system: MRSA KS1; experiment: MIC, broth microdilution, MRSA KS1; type: cell-based, Staphylococcus aureus; details: for MIC-fold improvement vs. vancomycin: MRSA KS1, ratio of MIC of vancomycin and MIC of analogue; for MIC: Staphylococcus aureus MRSA KS1, read-out: MIC
How it was run: as §1

[6] = test system: human cervix carcinoma (HeLa) cells; experiment: Cytostatic activity, HeLa cell proliferation; type: cell-based; details: mean ± SD of three experiments; highest concentration tested 250 µM; 4 days; read-out: Toxicity (IC50) HeLa
How it was run: (§2)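 Suspensions (300,000–500,000 cells/mL) combined with equal volumes of diluted compound; 37°C; L1210 2 d / CEM 3 d / HeLa 4 d; counted by Coulter counter; IC50 vs untreated wells.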

[7] = test system: Murine leukemia (L1210) cells; experiment: Cytostatic activity, L1210 cell proliferation; type: cell-based; details: mean ± SD of three experiments; highest concentration tested 250 µM; 2 days; read-out: Toxicity (IC50) L1210
How it was run: as §2

[8] = test system: MRSA KS89; experiment: MIC, broth microdilution, MRSA KS89; type: cell-based, Staphylococcus aureus; details: for MIC-fold improvement vs. vancomycin: MRSA KS8, ratio of MIC of vancomycin and MIC of analogue; for MIC: Staphylococcus aureus MRSA KS8, read-out: MIC
How it was run: as §1

[9] = test system: S. aureus VSSA (ATCC 6538); experiment: MIC, broth microdilution, vancomycin-sensitive S. aureus (VSSA/MSSA, ATCC 6538); type: cell-based, Staphylococcus aureus; details: for MIC: Staphylococcus aureus VSSA, read-out: MIC; for MIC-fold improvement vs. vancomycin: VSSA, ratio of MIC of vancomycin and MIC of analogue
How it was run: as §1

[10] = test system: S. aureus VRSA; experiment: MIC, broth microdilution, vancomycin-resistant S. aureus (VRSA); type: cell-based, Staphylococcus aureus; details: for MIC: Staphylococcus aureus VRSA, read-out: MIC; for MIC-fold improvement vs. vancomycin: VRSA, ratio of MIC of vancomycin and MIC of analogue
How it was run: as §1

[11] = test system: MRSA KS2; experiment: MIC, broth microdilution, MRSA KS2; type: cell-based, Staphylococcus aureus; details: for MIC-fold improvement vs. vancomycin: MRSA KS2, ratio of MIC of vancomycin and MIC of analogue; for MIC: Staphylococcus aureus MRSA KS2, read-out: MIC
How it was run: as §1

[12] = test system: MRSA KS6; experiment: MIC, broth microdilution, MRSA KS6; type: cell-based, Staphylococcus aureus; details: for MIC-fold improvement vs. vancomycin: MRSA KS6, ratio of MIC of vancomycin and MIC of analogue; for MIC: Staphylococcus aureus MRSA KS6, read-out: MIC
How it was run: as §1

[13] = test system: human T-lymphocyte (CEM) cells; experiment: Cytostatic activity, CEM cell proliferation; type: cell-based; details: mean ± SD of three experiments; highest concentration tested 250 µM; 3 days; read-out: Toxicity (IC50) CEM
How it was run: as §2

[14] = test system: E. faecalis VRE 6; experiment: MIC, broth microdilution, vancomycin-resistant E. faecalis VRE 6 (VanA); type: cell-based, Enterococcus faecalis; details: for MIC: Enterococcus faecalis VRE 6 (vancomycin-resistant), read-out: MIC; for MIC-fold improvement vs. vancomycin: VRE 6, ratio of MIC of vancomycin and MIC of analogue
How it was run: as §1

[15] = test system: L1210, CEM and HeLa cell lines; experiment: Cytostatic activity, average or summary over L1210, CEM and HeLa; type: cell-based; details: average of L1210, CEM and HeLa; read-out: Toxicity (IC50) Average
How it was run: as §2

[16] = test system: E. faecalis VSE 1; experiment: MIC, broth microdilution, vancomycin-sensitive E. faecalis (VSE 1); type: cell-based, Enterococcus faecalis; details: for MIC: Enterococcus faecalis VSE 1 (vancomycin-sensitive), read-out: MIC; for MIC-fold improvement vs. vancomycin: VSE 1, ratio of MIC of vancomycin and MIC of analogue
How it was run: as §1

Structure (SMILES) | MIC [1] [µM] | MIC-fold improvement vs. vancomycin [1] | MIC [2] [µM] | MIC-fold improvement vs. vancomycin [2] | MIC [3] [µM] | MIC-fold improvement vs. vancomycin [3] | MIC [4] [µM] | MIC-fold improvement vs. vancomycin [4] | MIC-fold improvement vs. vancomycin [5] | MIC [5] [µM] | IC50 [6] [µM] | IC50 [7] [µM] | MIC-fold improvement vs. vancomycin [8] | MIC [8] [µM] | MIC [9] [µM] | MIC-fold improvement vs. vancomycin [9] | MIC [10] [µM] | MIC-fold improvement vs. vancomycin [10] | MIC-fold improvement vs. vancomycin [11] | MIC [11] [µM] | also measured
CN[C@H](CC(C)C)C(=O)N[C@H]1C(=O)N[C@@H](CC(N)=O)C(=O)N[C@H]2C(=O)N[C@H]3C(=O)N[C@H](C(=O)N[C@H](C(=O)NCC(=O)Nc4ccc([N+](=O)[O-])cc4)c4cc(O)cc(O)c4-c4cc3ccc4O)[C@H](O)c3ccc(c(Cl)c3)Oc3cc2cc(c3O[C@@H]2O[C@H](CO)[C@@H](O)[C@H](O)[C@H]2O[C@H]2C[C@](C)(N)[C@H](O)[C@H](C)O2)Oc2ccc(cc2Cl)[C@H]1O [Vanc-67] | 25 (≈ 40.7 µg/mL) | 16 | 1.56 (≈ 2.54 µg/mL) | 4 | 25 (≈ 40.7 µg/mL) | 16 | 25 (≈ 40.7 µg/mL) | 16 | 1 | 0.78 (≈ 1.27 µg/mL) | 52 ± 19 | ≥ 250 | 1 | 0.78 (≈ 1.27 µg/mL) | 0.78 (≈ 1.27 µg/mL) | 1 | 6.25 (≈ 10.2 µg/mL) | 16 | 2 | 0.39 (≈ 0.634 µg/mL) | MIC-fold improvement vs. vancomycin [12]: 1; MIC [12]: 0.78 µM (≈ 1.27 µg/mL); IC50 [13]: 165 ± 32 µM; MIC [14]: 12.5 µM (≈ 20.3 µg/mL); MIC-fold improvement vs. vancomycin [14]: 16; IC50 [15]: 156 µM; MIC [16]: 0.78 µM (≈ 1.27 µg/mL); MIC-fold improvement vs. vancomycin [16]: 2
CNC(CC(C)C)C(=O)NC1C(=O)NC(CC(N)=O)C(=O)NC2C(=O)NC3C(=O)NC(C(=O)NC(C(=O)NCC(=O)Nc4ccc(C#CC5CCCC5)cc4)c4cc(O)cc(O)c4-c4cc3ccc4O)C(O)c3ccc(c(Cl)c3)Oc3cc2cc(c3OC2OC(CO)C(O)C(O)C2OC2CC(C)(N)C(O)C(C)O2)Oc2ccc(cc2Cl)C1O (stereo not shown) [Vanc-69] | 6.25 (≈ 10.5 µg/mL) | 64 | 0.78 (≈ 1.31 µg/mL) | 8 | 6.25 (≈ 10.5 µg/mL) | 64 | 6.25 (≈ 10.5 µg/mL) | 64 | 1 | 0.78 (≈ 1.31 µg/mL) | 55 ± 37 | 185 ± 93 | 4 | 0.20 (≈ 0.335 µg/mL) | 0.78 (≈ 1.31 µg/mL) | 1 | 1.56 (≈ 2.61 µg/mL) | 64 | 4 | 0.20 (≈ 0.335 µg/mL) | MIC-fold improvement vs. vancomycin [12]: 4; MIC [12]: 0.20 µM (≈ 0.335 µg/mL); IC50 [13]: 29 µM; MIC [14]: 3.13 µM (≈ 5.24 µg/mL); MIC-fold improvement vs. vancomycin [14]: 64; IC50 [15]: 90 µM; MIC [16]: 0.78 µM (≈ 1.31 µg/mL); MIC-fold improvement vs. vancomycin [16]: 2
CNC(CC(C)C)C(=O)NC1C(=O)NC(CC(N)=O)C(=O)NC2C(=O)NC3C(=O)NC(C(=O)NC(C(=O)NCC(=O)Nc4ccc(C#CC5CC5)cc4)c4cc(O)cc(O)c4-c4cc3ccc4O)C(O)c3ccc(c(Cl)c3)Oc3cc2cc(c3OC2OC(CO)C(O)C(O)C2OC2CC(C)(N)C(O)C(C)O2)Oc2ccc(cc2Cl)C1O (stereo not shown) [Vanc-70] | 6.25 (≈ 10.3 µg/mL) | 64 | 0.78 (≈ 1.28 µg/mL) | 8 | 6.25 (≈ 10.3 µg/mL) | 64 | 6.25 (≈ 10.3 µg/mL) | 64 | 4 | 0.20 (≈ 0.329 µg/mL) | 73 ± 10 | ≥ 250 | 2 | 0.39 (≈ 0.642 µg/mL) | 0.78 (≈ 1.28 µg/mL) | 1 | 1.56 (≈ 2.57 µg/mL) | 64 | 4 | 0.20 (≈ 0.329 µg/mL) | MIC-fold improvement vs. vancomycin [12]: 4; MIC [12]: 0.20 µM (≈ 0.329 µg/mL); IC50 [13]: 143 ± 113 µM; MIC [14]: 6.25 µM (≈ 10.3 µg/mL); MIC-fold improvement vs. vancomycin [14]: 32; IC50 [15]: 155 µM; MIC [16]: 0.78 µM (≈ 1.28 µg/mL); MIC-fold improvement vs. vancomycin [16]: 2
CN[C@H](CC(C)C)C(=O)N[C@H]1C(=O)N[C@@H](CC(N)=O)C(=O)N[C@H]2C(=O)N[C@H]3C(=O)N[C@H](C(=O)N[C@H](C(=O)NCC(=O)Nc4ccc(Oc5ccccc5)cc4)c4cc(O)cc(O)c4-c4cc3ccc4O)[C@H](O)c3ccc(c(Cl)c3)Oc3cc2cc(c3O[C@@H]2O[C@H](CO)[C@@H](O)[C@H](O)[C@H]2O[C@H]2C[C@](C)(N)[C@H](O)[C@H](C)O2)Oc2ccc(cc2Cl)[C@H]1O [Vanc-71] | 6.25 (≈ 10.5 µg/mL) | 64 | 0.78 (≈ 1.31 µg/mL) | 8 | 6.25 (≈ 10.5 µg/mL) | 64 | 6.25 (≈ 10.5 µg/mL) | 64 | 4 | 0.20 (≈ 0.335 µg/mL) | 91 ± 36 | > 250 | 4 | 0.20 (≈ 0.335 µg/mL) | 0.39 (≈ 0.653 µg/mL) | 2 | 1.56 (≈ 2.61 µg/mL) | 64 | 4 | 0.20 (≈ 0.335 µg/mL) | MIC-fold improvement vs. vancomycin [12]: 4; MIC [12]: 0.20 µM (≈ 0.335 µg/mL); IC50 [13]: 137 ± 41 µM; MIC [14]: 3.13 µM (≈ 5.24 µg/mL); MIC-fold improvement vs. vancomycin [14]: 64; IC50 [15]: 159 µM; MIC [16]: 0.78 µM (≈ 1.31 µg/mL); MIC-fold improvement vs. vancomycin [16]: 2
